According to patent US10016383B2, “Inhibitors of metallo-β-lactamase-enzymes” (McMaster University, priority 2013, dated 2018):
“Also recorded” adds a separate entry of the source.

Legend:
[1] = biological target: T1, ACE (Oryctolagus cuniculus, UniProt P12822); test: Incubation of AM-A with metalloenzymes in Zn2+-depleted buffer; assay type: biochemical, rabbit; conditions: extended incubation, AM-A 0.5 mM
T1 construct: as well as ACE from rabbit lung; from tissue; host or cells: rabbit lung
T1 sequence (P12822 34-1310): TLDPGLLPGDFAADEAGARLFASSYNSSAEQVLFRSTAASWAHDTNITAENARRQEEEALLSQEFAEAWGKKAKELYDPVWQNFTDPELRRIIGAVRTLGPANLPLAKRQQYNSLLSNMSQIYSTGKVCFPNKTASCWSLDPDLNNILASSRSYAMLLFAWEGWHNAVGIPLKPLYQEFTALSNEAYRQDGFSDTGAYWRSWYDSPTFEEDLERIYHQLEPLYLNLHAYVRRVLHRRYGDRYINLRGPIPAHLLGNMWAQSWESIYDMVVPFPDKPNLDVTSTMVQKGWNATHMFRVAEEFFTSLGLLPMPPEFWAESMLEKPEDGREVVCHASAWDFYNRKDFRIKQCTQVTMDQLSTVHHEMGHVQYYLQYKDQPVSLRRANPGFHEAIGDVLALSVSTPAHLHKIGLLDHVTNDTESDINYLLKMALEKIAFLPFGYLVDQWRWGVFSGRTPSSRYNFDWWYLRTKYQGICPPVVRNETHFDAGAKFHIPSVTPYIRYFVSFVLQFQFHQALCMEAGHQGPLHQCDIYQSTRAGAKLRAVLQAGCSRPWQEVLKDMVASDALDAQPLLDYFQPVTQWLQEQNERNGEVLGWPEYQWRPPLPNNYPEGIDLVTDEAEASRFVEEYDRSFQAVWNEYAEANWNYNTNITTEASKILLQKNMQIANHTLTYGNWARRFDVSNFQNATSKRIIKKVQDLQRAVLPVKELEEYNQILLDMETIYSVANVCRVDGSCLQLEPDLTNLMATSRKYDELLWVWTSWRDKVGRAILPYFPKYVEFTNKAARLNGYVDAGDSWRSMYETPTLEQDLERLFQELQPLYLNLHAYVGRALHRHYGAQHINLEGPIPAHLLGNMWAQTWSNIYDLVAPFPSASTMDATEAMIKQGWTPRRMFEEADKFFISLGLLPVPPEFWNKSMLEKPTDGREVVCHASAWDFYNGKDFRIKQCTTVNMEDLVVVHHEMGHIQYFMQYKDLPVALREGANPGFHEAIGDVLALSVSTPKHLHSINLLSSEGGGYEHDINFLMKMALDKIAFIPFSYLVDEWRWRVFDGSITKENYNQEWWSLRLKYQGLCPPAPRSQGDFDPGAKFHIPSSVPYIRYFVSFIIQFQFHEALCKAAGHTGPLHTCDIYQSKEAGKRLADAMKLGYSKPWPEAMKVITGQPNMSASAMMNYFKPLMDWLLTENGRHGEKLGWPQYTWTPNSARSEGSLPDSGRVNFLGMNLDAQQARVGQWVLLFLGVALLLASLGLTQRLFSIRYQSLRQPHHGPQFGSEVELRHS
Protocol: Enzyme (500 nM) was incubated with AM-A (500 μM) for 10 minutes. 20 μL of the above was diluted with 180 μL nitrocefin or FAPGG substrate for the following final concentrations: Enzyme (50 nM), FAPGG (50 μM)/nitrocefin (20 μM), AM-A (50 μM). Buffer (50 mM HEPES pH 7.5, 300 mM NaCl) was stirred overnight with 2 g/100 mL Chelex-100 (Biorad; Richmond, Calif.). Assays were read in 96-well microplate format at 490 nm using a Spectramax reader (Molecular Devices) at 37° C.

[2] = biological target: T2, CTX-M-15 (Escherichia coli, UniProt Q9EXV5); test: IC50 enzyme inhibition assay, nitrocefin reporter substrate; assay type: biochemical
T2 construct: All β-lactamase overexpression constructs were generated without the leader peptide in a pET-28b plasmid containing a N-terminal His Tag; His tag (N); made in house; host or cells: E. coli BL21(DE3)
T2 sequence (Q9EXV5 entry or part of it): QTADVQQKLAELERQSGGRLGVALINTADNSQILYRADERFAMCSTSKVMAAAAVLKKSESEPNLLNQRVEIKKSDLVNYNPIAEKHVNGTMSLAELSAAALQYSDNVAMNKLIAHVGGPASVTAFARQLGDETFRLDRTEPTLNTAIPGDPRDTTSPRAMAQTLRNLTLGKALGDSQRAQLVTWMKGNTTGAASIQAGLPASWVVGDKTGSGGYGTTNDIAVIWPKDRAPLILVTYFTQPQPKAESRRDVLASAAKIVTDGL
Protocol: (§1) Enzyme (NDM-1, 5 nM; VIM-2, 500 pM; CTX-M-15, 500 pM; KPC-2, 5 nM; OXA-48, 1 nM; TEM-1, 100 pM; ACE, 50 nM) was mixed with 30 μM nitrocefin (100 μM nitrocefin for TEM-1; 250 µM furanacryloyl-L-phenylalanylglycylglycine [FAPGG] for ACE^24) after a 5-10 minute preincubation with AM-A. Metallo-enzymes were supplemented with 10 μM ZnSO4. Assays were read in 96-well microplate format at 490 nm using a Spectramax reader (Molecular Devices) at 30-37° C.
(§2) E. coli strain BW25113 was modified by deletion of the bamB and tolC genes so as to increase permeability to and reduce efflux of small molecules. This strain was then further modified by the single-copy chromosomal insertion of the blaNDM-1 gene under control of the pLac promoter. Microbial natural product extracts were screened against this strain in the presence of sublethal ¼ MIC meropenem. AM-A was purified from a hit extract and its structure elucidated by NMR, mass spectrometry and polarimetry. IC50 values for AM-A were determined using nitrocefin (for MBLs and Ser BLs) and furanacryloyl-L-phenylalanylglycylglycine (for ACE)^21 as reporter substrates against the following purified enzymes: MBLs IMP-7, VIM-2, and NDM-1; SBLs CTX-M-15, KPC-2, OXA-48, and TEM-1; as well as ACE from rabbit lung. IC50, reversibility, Zn^2+ restoration, and inactivation enzyme assays were performed in 50 mM HEPES pH 7.5 and measured using a SpectraMax reader (Molecular Devices). ICP-MS experiments were conducted using purified NDM-1 at 5 mg/mL and varying concentrations of AM-A with subsequent dilution and transfer by nebulization into a NexION 3000 ICP mass spectrometer (Perkin Elmer). FIC values were determined using standard methods^27. Various concentrations of AM-A were tested in combination with 2 mg/L meropenem against 200+MBL-expressing clinical isolates including Pseudomonas spp., Acinetobacter spp., and Enterobacteriaceae. A dose of 2×10^6 forming units (cfu) of Klebsiella pneumoniae N11-2218 was used for all organ bacterial load experiments and a dose of 5×10^7cfu for all survival experiments. For all experiments, mice were treated with compound 30 minutes post infection.

[3] = biological target: T3, OXA-48 (Klebsiella pneumoniae, UniProt Q6XEC0); test: as above; assay type: biochemical
T3 construct: All β-lactamase overexpression constructs were generated without the leader peptide in a pET-28b plasmid containing a N-terminal His Tag; His tag (N); made in house; host or cells: E. coli BL21(DE3)
T3 sequence (Q6XEC0 23-265 limits assumed): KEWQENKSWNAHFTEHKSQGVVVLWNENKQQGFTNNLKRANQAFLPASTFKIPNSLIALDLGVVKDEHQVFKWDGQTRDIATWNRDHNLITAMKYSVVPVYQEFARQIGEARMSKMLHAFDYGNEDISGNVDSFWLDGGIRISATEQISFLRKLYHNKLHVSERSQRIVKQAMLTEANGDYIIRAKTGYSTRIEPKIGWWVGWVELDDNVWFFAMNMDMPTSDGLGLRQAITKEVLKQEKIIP
Protocol: as §1, §2

[4] = biological target: T4, VIM-2 (Escherichia coli, UniProt Q5U7L7); test: as above; assay type: biochemical
T4 construct: All β-lactamase overexpression constructs were generated without the leader peptide in a pET-28b plasmid containing a N-terminal His Tag; His tag (N); made in house; host or cells: E. coli BL21(DE3)
Protocol: as §1, §2

[5] = biological target: T5, TEM-1 (Escherichia coli, UniProt P62593); test: as above; assay type: biochemical
T5 construct: All β-lactamase overexpression constructs were generated without the leader peptide in a pET-28b plasmid containing a N-terminal His Tag; His tag (N); made in house; host or cells: E. coli BL21(DE3)
T5 sequence (P62593 24-286 limits assumed): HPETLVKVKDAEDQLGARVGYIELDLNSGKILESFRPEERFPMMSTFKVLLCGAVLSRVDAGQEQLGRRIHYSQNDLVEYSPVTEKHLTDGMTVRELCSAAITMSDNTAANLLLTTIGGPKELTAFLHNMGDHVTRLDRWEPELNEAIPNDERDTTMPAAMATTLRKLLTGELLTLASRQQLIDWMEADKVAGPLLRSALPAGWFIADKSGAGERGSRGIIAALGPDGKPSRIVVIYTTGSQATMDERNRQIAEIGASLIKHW
Protocol: as §1, §2

[6] = biological target: T6, KPC-2 (Klebsiella pneumoniae, UniProt Q9F663); test: as above; assay type: biochemical
T6 construct: All β-lactamase overexpression constructs were generated without the leader peptide in a pET-28b plasmid containing a N-terminal His Tag; His tag (N); made in house
T6 sequence (Q9F663 25-293 limits assumed): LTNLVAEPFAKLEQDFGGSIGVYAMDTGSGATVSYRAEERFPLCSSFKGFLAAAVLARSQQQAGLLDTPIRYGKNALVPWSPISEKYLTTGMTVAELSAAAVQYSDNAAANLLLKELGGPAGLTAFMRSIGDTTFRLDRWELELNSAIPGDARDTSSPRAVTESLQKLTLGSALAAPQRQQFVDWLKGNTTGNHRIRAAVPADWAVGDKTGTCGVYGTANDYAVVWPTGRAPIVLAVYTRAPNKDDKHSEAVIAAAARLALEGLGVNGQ
Protocol: as §1, §2

[7] = tested on: IMP-7; test: as above; assay type: biochemical
Protocol: as §1, §2

With `N[C@H](CN[C@H](CN[C@@H](CC(=O)O)C(=O)O)C(=O)O)C(=O)O` [AM-A, aspergillomarasmine A] the inhibition at 500 µM [1] was ~50%, the “effect on CTX-M-15” value [2] was “no effect” and the “effect on activity of OXA-48” value [3] was “no effect; also recorded: unaffected”. The IC50 [4] was 9.6 ± 2.4 µM, the “in vitro inhibition of VIM-2” value [4] was “potent in vitro dose-dependent inhibition” and the “effect on TEM-1” value [5] was “no effect”. For the same compound, the “effect on KPC-2” value [6] was “no effect” and the “activity against IMP-7” value [7] was “weaker activity; also recorded: less potent inactivation”.
